Measured values taken from publication PMC12448892 (2025).

Assays:
[1] = tested on: ADH1 WT (DNA, G4) GGGGCCGGTAGCGAGTGATAGCGAGGGAAAGACGATCGCTATCGGGCCGTAAGGAGGAAATGGGAGGTTGGGGG; assay: circular dichroism; conditions: 100 mM KCl; 10 mM Tris pH 7.5, 25 °C; 5 μM DNA, 10 μM PhenDC3; slight broadening of spectra
[2] = tested on: ADH1 5_G MUT (DNA, G4) GTGGCCGGTAGCGAGTGATAGCGAGTGAAAGACGATCGCTATCGTGCCGTAACGAGGAAATGTGAGGTTGGGGG; assay: circular dichroism; conditions: 100 mM KCl; 10 mM Tris pH 7.5, 25 °C; 5 μM DNA, 10 μM PhenDC3; slight broadening of spectra
[3] = tested on: ADH1 4_G MUT (DNA, G4) GTGGCCGGTAGCGAGTGATAGCGAGTGAAAGACGATCGCTATCGTGCCGTAAGGAGGAAATGTGAGGTTGGGGG; assay: circular dichroism; conditions: 100 mM KCl; 10 mM Tris pH 7.5, 25 °C; 5 μM DNA, 10 μM PhenDC3; slight broadening of spectra
[4] = tested on: ADH1 5_G MUT (DNA, G4) GTGGCCGGTAGCGAGTGATAGCGAGTGAAAGACGATCGCTATCGTGCCGTAACGAGGAAATGTGAGGTTGGGGG; assay: ThT fluorescence titration; conditions: 10 mM KCl; 10 mM Tris pH 7.5, room temperature; 0.5 μM ThT; apparent
[5] = tested on: ADH1 WT (DNA, G4) GGGGCCGGTAGCGAGTGATAGCGAGGGAAAGACGATCGCTATCGGGCCGTAAGGAGGAAATGGGAGGTTGGGGG; assay: ThT fluorescence titration; conditions: 10 mM KCl; 10 mM Tris pH 7.5, room temperature; 0.5 μM ThT; apparent
[6] = tested on: ADH1 4_G MUT (DNA, G4) GTGGCCGGTAGCGAGTGATAGCGAGTGAAAGACGATCGCTATCGTGCCGTAAGGAGGAAATGTGAGGTTGGGGG; assay: ThT fluorescence titration; conditions: 10 mM KCl; 10 mM Tris pH 7.5, room temperature; 0.5 μM ThT; apparent

Row | SMILES | binding [1] | binding [2] | binding [3] | k [4] | k [5] | k [6]
1 | C[n+]1cc(NC(=O)c2ccc3ccc4ccc(C(=O)Nc5cc6ccccc6[n+](C)c5)nc4c3n2)cc2ccccc21 | yes | yes | yes |  |  | 
2 | Cc1ccc2c(c1)sc(-c1ccc(N(C)C)cc1)[n+]2C |  |  |  | 0.89 ± 0.13 µM | 0.65 ± 0.04 µM | 0.76 ± 0.06 µM
